Assay results reported in US20180185801A1, “AMPHOTERIC ESTER SULFONATES” (Eastman Chemical Company, priority 2014, published 2018).
Where two headings read alike, the source gives them in different places. Blank lines part the entries; values can stand above or below the compound they belong to.

Key:
[1] = Foaming properties, ASTM 1173-07 foam height test; assay type: physicochemical
Description: The Standard Test Method for Foaming Properties of Surface-Active Agents (ASTM 1173-07) was used to determine the foaming properties of the ester sulfonates 1 described herein. This method generates foam under low-agitation conditions and is generally used for moderate- and high-foam surfactants. This test gathers data on initial foam height and foam decay.
Foam decay provides information on foam stability.
The apparatus for carrying out this test includes a jacketed column and a pipet. The jacketed column serves as a receiver, while the pipet delivers the surface-active solution. Solutions of each surface-active agent were prepared. The amphoteric ester sulphonate solution to be tested was added to the receiver (50 mL) and to the pipet (200 mL). The pipet was positioned above the receiver and opened. As the solution fell and made contact with the solution in the receiver, foam was generated. When the pipet was empty, the time was noted and an initial foam height was recorded. The foam height was recorded each minute for five minutes. Exact size specifications for the glassware can be found in ASTM 1173-07. The foam height results for each ester sulfonate 1 and representative standards are listed below in Tables 1 (0.1% concentration) and 2 (1% concentration).

[2] = Critical micelle concentration, fluorimetric determination with DPH dye; assay type: physicochemical
Experimental: The critical micelle concentration (CMC) was also determined for each compound. The CMC is the concentration of surfactant above which micelles spontaneously form. CMC is an important characteristic of a surfactant. At surfactant concentrations below the CMC, surface tension varies widely with surfactant concentration. At concentrations above the CMC, surface tension remains fairly constant. A lower CMC indicates less surfactant is needed to saturate interfaces and form micelles. Typical CMC values are less than 1 weight percent (10,000 ppm).
The fluorimetric determination of CMC described by Chattopadhyay and London (Analytical Biochemistry, Vol. 139, pp. 408-412 (1984)) was used to obtain the critical micelle concentrations found in Table 3 below. This method employs the fluorescent dye 1,6-diphenyl-1,3,5-hexatriene (DPH) in a solution of the surface-active agent. The analysis is based on differences in fluorescence upon incorporation of the dye into the interior of the micelles. As the solution exceeds CMC, a large increase in fluorescence intensity is observed.

[3] = buffer, pH 4.5
Experimental: The resulting mixture was placed in a 50° C. oven. Samples were taken periodically and analyzed for the amount of 3-(lauroyloxypropyldimethylammonio)-2-hydroxypropanesulfonate remaining by quantitative HPLC.
Samples were taken periodically and analyzed for the amount of 3-(cocoyloxypropyldimethylammonio)acetate remaining by quantitative HPLC.

Foam height (cm) at time t (min) ([1]; 1 g/L (0.1 weight %), t = 0 min): 16.5 cm | Foam height (cm) at time t (min) ([1]; 1 g/L (0.1 weight %), t = 1 min): 16.0 cm | Foam height (cm) at time t (min) ([1]; 1 g/L (0.1 weight %), t = 2 min): 15.5 cm | Foam height (cm) at time t (min) ([1]; 1 g/L (0.1 weight %), t = 3 min): 15.5 cm | Foam height (cm) at time t (min) ([1]; 1 g/L (0.1 weight %), t = 4 min): 15.5 cm | Foam height (cm) at time t (min) ([1]; 1 g/L (0.1 weight %), t = 5 min): 15.0 cm | Foam height (cm) at time t (min) ([1]; 10 g/L (1.0 weight %), t = 0 min): 17.5 cm | Foam height (cm) at time t (min) ([1]; 10 g/L (1.0 weight %), t = 1 min): 17.0 cm | Foam height (cm) at time t (min) ([1]; 10 g/L (1.0 weight %), t = 2 min): 17.0 cm | Foam height (cm) at time t (min) ([1]; 10 g/L (1.0 weight %), t = 3 min): 16.5 cm | Foam height (cm) at time t (min) ([1]; 10 g/L (1.0 weight %), t = 4 min): 16.0 cm | Foam height (cm) at time t (min) ([1]; 10 g/L (1.0 weight %), t = 5 min): 15.5 cm | CMC [2]: 0.060 mM | CMC (ppm) [2]: 26.4 ppm
SMILES: CCCCCCCCCCCC(=O)OC(C)CC[N+](C)(C)CC(O)CS(=O)(=O)[O-] (centres unmarked) [Example 27, 3-(3-(lauroyloxy)-1-butyldimethylammonio-1-yl)-2-hydroxypropanesulfonate]

Percent Amphoteric Remaining ([3]; 0 h): 100% | Percent Amphoteric Remaining ([3]; 336 h): 98% | Percent Amphoteric Remaining ([3]; 1008 h): 98% | Percent Amphoteric Remaining ([3]; 1344 h): 94% | Percent Amphoteric Remaining ([3]; 2016 h): 95%
SMILES: CCCCCCCCCCCC(=O)OCCC[N+](C)(C)CC(O)CS(=O)(=O)[O-] (centres unmarked) [Example 31, 3-(lauroyloxypropyldimethylammonio)-2-hydroxypropanesulfonate]

SMILES: CCCCCCCCCCCCOS(=O)(=O)O.N [ammonium lauryl sulfate]
CMC [2]: 1.38 mM | CMC (ppm) [2]: 392 ppm

SMILES: CCCCCCCCCCCCOS(=O)(=O)[O-].[Na+] [sodium lauryl sulfate]
CMC [2]: 8.27 mM | CMC (ppm) [2]: 2386 ppm
